Assay results taken from PMC8675232 (Frontiers in Pharmacology, 2021).

Legend:
[1] = in vivo; cited from earlier work
[2] = system: healthy Chinese male volunteers; experiment: Pharmacodynamics (glucose infusion rate) in 24-h euglycemic clamp; type: in vivo; settings: 0.4 IU/kg s.c. single dose, mean ± SD
Method: The volunteers were screened and qualified for the entry standard. […] During the trial, volunteers were requested to avoid strenuous exercises, smoking, drinking alcohol, or caffeinated drinks (e.g., tea and coffee). […] C-peptide reduction rate <30%; group B: […] The trial was carried out in accordance with the principles of the Declaration of Helsinki. This study was approved by the Ethics Committee of the First Affiliated Hospital of ChongQing Medical University (No. 20190101). All recruited volunteers underwent a single-dose euglycemic clamp test. Participants arrived at the ward on the day prior to the clamp test to ensure a 10-h fasting condition and to maintain fasting during euglycemic clamping. […] Intravenous access was obtained in one arm for a 20% glucose infusion and in the other for blood drawing. The arm for blood drawing was heated using a warming blanket to arterialize venous blood (55-65°C). […] Basal glucose (BG) was defined as the average blood glucose level before injection; the target glucose (TG) level was defined as the BG minus 0.28 mmol/[…] al., 2015b]); and we controlled the blood glucose concentration as close as possible to the TG level. The glucose infusion rate (GIR) was manually adjusted by investigators to maintain blood glucose at the target value. […] SPSS 22.0 and WinNonlin 8.1 were used for statistical analysis. […] The oscillation of glucose was calculated with formula 1-Gt (glucose at time t)/Gd (desired glucose). […] The pharmacodynamic parameters were area under the glucose infusion rate versus time curve (AUCGIR0-24 h), peak of glucose infusion rate (GIRmax), and time to […]).

[3] = group A (C-peptide reduction <30%, n = 13)
[4] = group B (C-peptide reduction ≥30% and <50%, n = 15)
[5] = group C (C-peptide reduction ≥50%, n = 11)

Substance	half-life [1] [min]	AUCGIR0–24 h [2, 3] [mg/kg]	GIRmax [2, 3] [mg/kg/min]	TGIRmax [2, 3] [min]	AUCGIR0–24 h [2, 4] [mg/kg]	GIRmax [2, 4] [mg/kg/min]	TGIRmax [2, 4] [min]	AUCGIR0–24 h [2, 5] [mg/kg]	GIRmax [2, 5] [mg/kg/min]	TGIRmax [2, 5] [min]
C-peptide	20 to 30									
insulin glargine		3175.9 ± 1135.2	3.5 ± 1.3	593.1 ± 198.1	2862.9 ± 1176.0	3.4 ± 1.4	584.0 ± 199.1	2526.1 ± 1222.0	3.0 ± 1.5	756.4 ± 228.0
